The target of assay [1] is T1, hVDR (Vitamin D receptor) (Homo sapiens, UniProt P11473).
T1 construct: 90-427; expressed in transfected cells; host or cells: CHO cells, transient transfection
T1 sequence (P11473 90-427): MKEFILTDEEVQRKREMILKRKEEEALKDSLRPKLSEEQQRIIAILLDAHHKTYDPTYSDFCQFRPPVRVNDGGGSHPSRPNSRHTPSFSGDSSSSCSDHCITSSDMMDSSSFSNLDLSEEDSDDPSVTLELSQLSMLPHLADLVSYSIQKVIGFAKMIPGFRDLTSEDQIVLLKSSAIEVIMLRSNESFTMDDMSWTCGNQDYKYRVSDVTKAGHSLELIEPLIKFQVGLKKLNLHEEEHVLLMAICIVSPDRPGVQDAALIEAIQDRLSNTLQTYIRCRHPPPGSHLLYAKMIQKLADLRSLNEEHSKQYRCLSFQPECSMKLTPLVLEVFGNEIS
The experiment in a line: Crossreactive receptor transcriptional assay (Gal4 hybrid). Type of assay: cell-based. As to the method: A firefly luciferase reporter gene for Gal4 DBD hybrid receptors, such as Gal4-RORγ, contains five copies of the Gal4 17-mer response element in its promoter and the coding sequence for firefly luciferase (pG5-luc, Promega). CHO (Chinese Hamster Ovary) cells were cultured in Ham's F12 medium supplemented with 10% fetal calf serum (Gemini Biologicals), 10 μg/ml penicillin and streptomycin, and were maintained in a humidified 37° C. incubator (Thermo Electron, Steri-Cycle) with 5% CO2. 24 hours before transfection, cells were plated in T175 flasks (5×10^6 cells/flask) or T75 flasks (1.7×10^6 cells/flask).
Plates are maintained at 37° C. in a humidified atmosphere with 7% CO2 overnight. […] Approximately 40 hours later, cytotoxicity in the assay well was characterized by addition of the dye resazurin (O'Brien, Wilson et al. 2000) to a final concentration of 3 μM. […] Percent viability was determined as 2 hour fluorescence, minus background at t=0 hours, normalized to DMSO controls. For detection of luciferase activity, media was removed from plates after the measurement of resazurin conversion, and SteadyLite luciferase reagent (Perkin-Elmer) was added (30 μl/well). Luminescence is detected with a Victor 2-V plate reader (Perkin-Elmer) and normalized to luciferase activity of DMSO control wells alone.

Assay [2] concerns the target T2, mRORγ LBD (Mus musculus, UniProt P51450).
T2 construct: made in house; host or cells: Sf9 insect cells, baculovirus; cleared lysate used directly
T2 sequence (P51450 251-516): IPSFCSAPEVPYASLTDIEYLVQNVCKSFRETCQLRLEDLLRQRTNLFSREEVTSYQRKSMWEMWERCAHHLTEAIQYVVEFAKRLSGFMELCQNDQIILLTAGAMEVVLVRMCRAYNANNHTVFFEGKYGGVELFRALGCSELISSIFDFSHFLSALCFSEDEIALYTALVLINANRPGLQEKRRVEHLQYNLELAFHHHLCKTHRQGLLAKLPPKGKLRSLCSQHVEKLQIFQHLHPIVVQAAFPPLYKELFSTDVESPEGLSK
The experiment in a line: Biochemical assay, coregulatory peptide recruitment to GST-RORγ LBD (FRET). The source says: GST-RORγ was generated by subcloning the RORγ-LBD into pET-41a, a vector which expresses GST fusion proteins in bacteria.
The cloning steps for GST-RORγ were as follows. The mRORγ LBD was excised from Gal4-mRORγ (see above for cloning steps) at BamHI and HindIII sites of Sequence 1 and cloned into the corresponding sites of pET-41a(+) (EMD Biosciences, San Diego, Calif.). A GST-mRORγ fragment was then excised from pET-41a(+) at XbaI and XhoI sites and cloned into a pcDNA3.1vector (Invitrogen, Carlsbad, Calif.) restricted at NheI and XhoI sites. Plasmid GST-mRORγ-pcDNA3.1 was used as a PCR template to generate a GST-mRORγ fragment that was later cloned into pENTR/D-TOPO vector (Invitrogen, Carlsbad, Calif.) by standard cloning techniques recommended by the manufacturer of the vector. The nucleotide sequence of GST-mRORγ is shown below:
For baculoviral expression of RORγ, the cDNA fragment of GST-RORγ— LBD, was subcloned from pET-41a into the pENTR/D-TOPO vector using a commercially-available kit (BaculoDirect, Invitrogen). Briefly, GST-RORγ carried by pENTR/D-TOPO was transfected into mono-layer Sf9 cells (8×10^5/well in 6-well plates) by Cellfectin (Invitrogen). Sf9 cells were incubated at 27° C. in a non-humidified incubator for 72 hours. Cell media was collected as P1 viral stock and used to further infect Sf9 cells to generate P2 and P3 virus. […] A plaque assay was performed to determine the titer of P3 virus and to isolate single plaques. P4 virus was generated from a single plaque and propagated on a larger scale.
Adherent SF9 cells were infected with baculovirus carrying GST-RORγ and were cultured for 72 hours. Sf9 cell were then subject to a brief sonication in a lysis buffer (20 mM phosphate, pH 6.8, 50 mM KCl, 50 mM NaCl, 0.5 mM EDTA, 50% glycerol, 0.001% NP-40 and 1 mM DTT) and centrifuged at 3000 rpm for 15 minutes. […] Cleared cell lysate was stored at −70° C. and is directly utilized in the coregulatory peptide recruitment assay.
The labeled probes anti-GST-APC and SA-RPE were purchased from Prozyme (San Leandro, Calif.). Compounds were added directly from a DMSO solution to a final concentration of 1-2% DMSO. Fluorescence was measured on a Wallac Victor 2 V plate reader equipped with a 670/40 nm filter (Omega Optical, Brattleboro, Vt.) for APC emission (Channel A) and a 600/25 bandpass filter for monitoring the RPE emission (Channel B).

Setting [3] is: Table 6, read-out: Potency (EC50) at hVDR.
The mark [4] stands for this setting: Table 4A, peptide K1, no agonist present, medians of two or more assays, unit inferred, read-out: EC50 Biochemical.

pEC50: −log10 of the molar value. Where two headings read alike, the source gives them in different places.

With `CC(=O)O[C@H]1CC[C@@]2(C)C(CC[C@]3(C)C2C(=O)C=C2C4[C@@H](C)[C@H](C)CC[C@]4(C(=O)O)CC[C@]23C)C1(C)C` (stereo in doubt) [OR-13571, 10-Acetoxy-1,2,6a,6b,9,9,12a-heptamethyl-13-oxo-1,3,4,5,6,6a,6b,7,8,8a,9,10,11,12,12a,12b,13,14b-octadecahydro-2H-picene-4a-carboxylic acid], the values for the pEC50 in assay [1] (setting [3]) and in assay [2] (setting [4]) were less than 5.00 and 5.92, respectively.

On to `O=S(=O)(c1ccccc1)N(CC(F)(F)F)c1ccc(C(O)(C(F)(F)F)C(F)(F)F)cc1` [Compound T0901317, N-(2,2,2-Trifluoro-ethyl)-N-[4-(2,2,2-trifluoro-1-hydroxy-1-trifluoromethyl-ethyl)-phenyl]-benzenesulfonamide, reference compound], for which the pEC50 in assay [1] (setting [3]) is less than 5.00.

`C[C@@H]1CC[C@@]2(OC1)O[C@H]1C[C@H]3[C@@H]4CC[C@H]5C[C@@H](O)CC[C@]5(C)[C@H]4C[C@@H](O)[C@]3(C)[C@H]1[C@@H]2C` [OR-885, 5α,20α, 22α, 25D-SPIROSTAN-3β, 12β-DIOL]: the figures for the pEC50 in assay [1] and in assay [2] were less than 5.00 and 5.60, respectively.

For `CCN(c1ccc(C(O)(C(F)(F)F)C(F)(F)F)cc1)S(=O)(=O)c1ccc([N+](=O)[O-])cc1` [OR-1050, N-Ethyl-4-nitro-N-[4-(2,2,2-trifluoro-1-hydroxy-1-trifluoromethyl-ethyl)-phenyl]-benzenesulfonamide], the pEC50 was less than 5.00 in assay [1] (setting [3]); 6.05 in assay [2] (Table 1, mRORγ and peptide K1, read-out: Assay EC50 in micromolar at mRORγ Biochemical); 6.05 in assay [2] (Table 7, taken from Table 1 (peptide K1), read-out: Assay EC50 in micromolar at mRORγ Biochemical).

Take `COc1c(C=NNc2nc(N3CCCCC3)nc(N3CCCCC3)n2)cccc1[N+](=O)[O-]` [OR-2161, N-(4,6-Di-piperidin-1-yl-[1,3,5]triazin-2-yl)-N′-(2-methoxy-3-nitro-benzylidene)-hydrazine]: the pEC50 in assay [1] (setting [3]) was less than 5.00; in assay [2] (setting [4]), 5.35.

Take `COC(C)CCC(C)C1CCC2C3CC(O)C4CC(O)CCC4(C)C3CCC12C` (stereo not drawn) [OR-12872, 17-(4-Methoxy-1-methyl-pentyl)-10,13-dimethyl-hexadecahydro-cyclopenta[a]phenanthrene-3,6-diol]: the pEC50 is less than 5.00 in assay [1] (setting [3]); 7.28 in assay [2] (Table 2, agonists, biotinylated peptide K, 50% of estimated maximum FRET signal, read-out: EC50 in micromolar at mRORγ Biochemical); more than 7.00 in assay [2] (agonist, read-out: potency in the biochemical assay).

In the case of `CCn1c(CNc2ccc(Cl)cc2)nnc1SCC(=O)Nc1cccc2ccccc12` [OR-133008, 2-{5-[(4-Chloro-phenylamino)-methyl]-4-ethyl-4H-[1,2,4]triazol-3-ylsulfanyl}-N-naphthalen-1-yl-acetamide], the values for the pEC50 in assay [1] (setting [3]) and in assay [2] (setting [4]) were less than 5.00 and 5.79, respectively.

The values above are taken from patent US8389739B1, “Modulators of retinoid-related orphan receptor gamma” (Orphagen Pharmaceuticals, priority 2006, dated 2013).
